Consider 19 compounds from publication PMC6442233, “SAR and molecular mechanism studies of monoamine oxidase inhibition by selected chalcone analogs” (Journal of Enzyme Inhibition and Medicinal Chemistry, 2019).

For one data set, the target named is T1, human MAO-B (Homo sapiens, UniProt P27338).
T1 construct: purchased Sigma-Aldrich
T1 sequence (P27338 1-520): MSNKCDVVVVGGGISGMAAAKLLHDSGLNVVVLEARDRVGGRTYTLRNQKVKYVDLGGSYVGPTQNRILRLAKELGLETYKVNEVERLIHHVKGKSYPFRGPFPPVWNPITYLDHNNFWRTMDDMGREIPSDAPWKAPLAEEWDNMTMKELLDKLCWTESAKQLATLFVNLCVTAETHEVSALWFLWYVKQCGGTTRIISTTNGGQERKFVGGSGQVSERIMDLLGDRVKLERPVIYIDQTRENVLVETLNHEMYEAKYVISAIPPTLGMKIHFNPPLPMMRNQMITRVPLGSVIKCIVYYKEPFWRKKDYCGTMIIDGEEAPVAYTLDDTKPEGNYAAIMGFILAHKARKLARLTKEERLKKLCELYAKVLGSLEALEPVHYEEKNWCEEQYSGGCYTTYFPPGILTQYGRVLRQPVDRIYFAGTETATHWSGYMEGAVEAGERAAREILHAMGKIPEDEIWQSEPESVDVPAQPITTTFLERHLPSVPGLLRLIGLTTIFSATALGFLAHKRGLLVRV
Briefly: IC50 determination for MAO-B inhibition (kynuramine, fluorescence). Conditions: for Selectivity index: SI = IC50(MAO-A)/IC50(MAO-B); for IC50: recombinant hMAO-B, kynuramine 50 μM, mean ± SD (triplicate). The class given is biochemical. On the procedure: (§1) IC50 values for the inhibition of MAO were determined by using the recombinant human MAO-A and MAO-B enzymes (Sigma-Aldrich). Enzyme reactions were performed at a final volume of 200 µL in white 96-well microplates (Eppendorf), with the reaction solvent consisting of potassium phosphate buffer (100 mM, pH 7.4, adjusted to isotonicity with KCl). The reactions contained the nonselective MAO substrate, kynuramine (50 μM), and the test inhibitors at 0.003–100 µM. The test compounds were initially dissolved in DMSO (100%), and after addition to the reactions yielded a concentration of 4% DMSO. Control reactions were included, which contained substrate and 4% DMSO but no test inhibitor. The MAO reactions were started by adding MAO-A (0.0075 mg protein/mL) or MAO-B (0.015 mg protein/mL), and were subsequently incubated for a period of 20 min (37 °C) in a convection oven. A volume of 80 µL 2 N sodium hydroxide was added to the reactions, and the fluorescence intensity of 4-hydroxyquinoline (the end-product of the MAO-catalyzed metabolism of kynuramine) in the reactions was measured at λex 310 and λem 400 nm. To quantify 4-hydroxyquinoline, a calibration curve (linear) ranging from 0.047 to 1.56 μM, was employed. […] These measurements were carried out in triplicate and the IC50 values are presented as the mean ± standard deviation (SD)[18].
(§2) The formation of the dihydropyridinium species (MMDP^+) as a MAO-catalyzed oxidation product of MMTP was monitored at 420 nm. […] Based on this, the IC50 values were determined using kynuramine as a nonselective substrate. The rate of oxidation of kynuramine by MAO was monitored by measuring the fluorescence of the oxidation product, 4-hydroxyquinoline (λex= 310 nm; λem= 400 nm).

Another data set deals with T2, human MAO-A (Homo sapiens, UniProt P21397).
T2 construct: purchased Sigma-Aldrich
T2 sequence (P21397 1-527): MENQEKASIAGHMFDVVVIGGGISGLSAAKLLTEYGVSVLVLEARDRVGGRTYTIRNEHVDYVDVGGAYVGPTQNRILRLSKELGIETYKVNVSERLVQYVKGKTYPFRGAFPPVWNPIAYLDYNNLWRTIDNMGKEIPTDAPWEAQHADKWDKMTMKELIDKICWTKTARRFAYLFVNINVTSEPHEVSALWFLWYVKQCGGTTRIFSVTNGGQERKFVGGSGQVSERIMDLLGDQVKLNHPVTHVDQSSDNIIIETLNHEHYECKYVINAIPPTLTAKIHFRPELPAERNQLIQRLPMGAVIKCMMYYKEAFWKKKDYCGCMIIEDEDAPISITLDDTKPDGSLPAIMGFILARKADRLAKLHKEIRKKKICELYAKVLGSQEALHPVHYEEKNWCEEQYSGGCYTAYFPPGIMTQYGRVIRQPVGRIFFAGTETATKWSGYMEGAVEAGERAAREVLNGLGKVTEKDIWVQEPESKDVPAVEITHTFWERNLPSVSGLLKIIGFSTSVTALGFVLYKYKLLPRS
As to the kind of experiment: IC50 determination for MAO-A inhibition (kynuramine, fluorescence). The class given is biochemical. The following applies: recombinant hMAO-A, kynuramine 50 μM, mean ± SD (triplicate). Here is the method:
as §1, §2

Consider `CS(=O)(=O)c1ccc(C(=O)/C=C/c2ccc(Br)cc2)cc1` [Compound 9, (E)-3–(4-bromophenyl)-1–(4-(methylsulfonyl)phenyl)prop-2-en-1-one], for which the melting point (as a rule, the temperature of the solid-liquid transition) was in the range of 206 to 210 °C. In addition, on human MAO-B, the Selectivity index is above 240 and the IC50 (usually the concentration at which inhibition is half-maximal) came out at 0.404 ± 0.064 µM. For the same compound, the IC50 on human MAO-A was above 100 µM.

In the case of `CN(C)c1ccc(/C=C/C(=O)c2ccc(C(F)(F)F)cc2)cc1` [Compound 2, (E)-3–(4-(dimethylamino)phenyl)-1–(4-(trifluoromethyl)phenyl)prop-2-en-1-one], at human MAO-B, the Selectivity index was above 260 and the IC50 was 0.383 ± 0.061 µM. Moreover, the IC50 at human MAO-A is above 100 µM.

`CCOc1cccc(/C=C/C(=O)c2ccc(Br)cc2)c1OCC` [Compound 22, (E)-1–(4-bromophenyl)-3–(2,3-diethoxyphenyl)prop-2-en-1-one] had a melting point of 75 to 79 °C. The IC50 at human MAO-B is 15.6 ± 0.803 µM. Also, the IC50 on human MAO-A is above 100 µM.

As to `O=C(/C=C/c1cccc2c1OCO2)c1cccc(Cl)c1` [Compound 8, (E)-3-(benzo[d][1,3]dioxol-4-yl)-1–(3-chlorophenyl)prop-2-en-1-one], the melting point lay within 79 to 83 °C. For the same compound, on human MAO-B, the Selectivity index is given as above 1720 and the IC50 was 0.058 ± 0.009 µM. Further, the half-maximal inhibitory concentration (IC50) on human MAO-A is above 100 µM.

In turn, `COc1ccccc1/C=C/C(=O)c1ccc(Br)cc1` [Compound 20, (E)-1–(4-bromophenyl)-3–(2-methoxyphenyl)prop-2-en-1-one] had a melting point of 73 to 77 °C. Besides, at human MAO-B, the Selectivity index came out at 5.8 and the IC50 was found to be 0.999 ± 0.276 µM. Moreover, the IC50 at human MAO-A came out at 5.81 ± 0.878 µM.

`O=C(/C=C/c1cccc2c1OCO2)c1ccc(Br)cc1` [Compound 5, (E)-3-(benzo[d][1,3]dioxol-4-yl)-1–(4-bromophenyl)prop-2-en-1-one] gave a melting point of 96 to 100 °C. Further, on human MAO-B, the Selectivity index worked out at 67 and the IC50 was found to be 0.106 ± 0.012 µM. The IC50 at human MAO-A came out at 7.18 ± 0.755 µM.

Compound `O=C(/C=C/c1cccc2c1OCO2)c1cccc(Br)c1` [Compound 7, (E)-3-(benzo[d][1,3]dioxol-4-yl)-1–(3-bromophenyl)prop-2-en-1-one] had a melting point of 107 to 111 °C. Further, at human MAO-B, the Selectivity index was above 1230 and the IC50 came to 0.081 ± 0.012 µM. On human MAO-A, the IC50 is above 100 µM.

`COc1cc(OC)c(/C=C/C(=O)c2ccc(Br)cc2)c(OC)c1` [Compound 18, (E)-1–(4-bromophenyl)-3–(2,4,6-trimethoxyphenyl)prop-2-en-1-one]: at human MAO-B, the Selectivity index is listed as below 0.005 and the IC50 is above 100 µM. Further, the IC50 on human MAO-A was 0.56 ± 0.076 µM.

Compound `O=C(/C=C/c1cccc2c1OCO2)c1ccc(Cl)cc1` [Compound 6, (E)-3-(benzo[d][1,3]dioxol-4-yl)-1–(4-chlorophenyl)prop-2-en-1-one] had a melting point of 83 to 87 °C. Also, at human MAO-B, the Selectivity index came out at 130 and the IC50 was 0.139 ± 0.019 µM. Besides, at human MAO-A, the IC50 stood at 18.1 ± 3.49 µM.

For the compound `CN(C)c1ccc(/C=C/C(=O)c2cccc(C(F)(F)F)c2)cc1` [Compound 1, (E)-3–(4-(dimethylamino)phenyl)-1–(3-(trifluoromethyl)phenyl)prop-2-en-1-one], on human MAO-B, the Selectivity index was 116 and the IC50 came out at 0.123 ± 0.003 µM. In addition, the IC50 at human MAO-A was found to be 14.3 ± 1.81 µM.

Consider `COc1cccc(/C=C/C(=O)c2ccc(Br)cc2)c1OC` [Compound 21, (E)-1–(4-bromophenyl)-3–(2,3-dimethoxyphenyl)prop-2-en-1-one], for which the melting point lay within 120 to 124 °C. Besides, on human MAO-B, the Selectivity index turned out to be 37 and the IC50 amounted to 0.174 ± 0.015 µM. Further, the IC50 at human MAO-A was found to be 6.59 ± 0.422 µM.

Take `CN(C)c1ccc(/C=C/C(=O)c2ccc(Br)cc2)cc1` [Compound 3, (E)-1–(4-bromophenyl)-3–(4-(dimethylamino)phenyl)prop-2-en-1-one]: on human MAO-B, the Selectivity index is above 185 and the IC50 came to 0.539 ± 0.058 µM. For the same compound, the IC50 at human MAO-A was above 100 µM.

Take `CSc1ccc(C(=O)/C=C/c2cccc(Br)c2)cc1` [Compound 11, (E)-3–(3-bromophenyl)-1–(4-(methylthio)phenyl)prop-2-en-1-one]: the melting point was in the range of 139 to 143 °C. In addition, on human MAO-B, the Selectivity index is reported as 487 and the IC50 came to 0.198 ± 0.012 µM. On human MAO-A, the IC50 was 96.6 ± 5.21 µM.

Compound `O=C(/C=C/c1ccc(Br)cc1)c1ccc2c(c1)OCO2` [Compound 15, (E)-1-(benzo[d][1,3]dioxol-5-yl)-3–(4-bromophenyl)prop-2-en-1-one] returned a melting point of 150 to 153 °C. For the same compound, on human MAO-B, the Selectivity index was 1.7 and the IC50 came out at 0.102 ± 0.009 µM. The IC50 at human MAO-A turned out to be 0.173 ± 0.003 µM.

Consider `COc1cc(OC)c(/C=C/C(=O)c2ccc(F)cc2)c(OC)c1` [Compound 19, (E)-1–(4-fluorophenyl)-3–(2,4,6-trimethoxyphenyl)prop-2-en-1-one], for which, at human MAO-B, the Selectivity index is listed as below 0.004 and the IC50 is above 100 µM. Further, on human MAO-A, the IC50 came out at 0.444 ± 0.039 µM.

Turning to `CN(C)c1ccc(/C=C/C(=O)c2ccc(Cl)cc2)cc1` [Compound 4, (E)-1–(4-chlorophenyl)-3–(4-(dimethylamino)phenyl)prop-2-en-1-one], at human MAO-B, the Selectivity index is recorded as above 310 and the IC50 turned out to be 0.321 ± 0.023 µM. Also, the IC50 on human MAO-A was above 100 µM.

In turn, `O=C(/C=C/c1ccc([N+](=O)[O-])cc1)c1ccc(Cl)cc1` [Compound 13, (E)-1–(4-chlorophenyl)-3–(4-nitrophenyl)prop-2-en-1-one] came in with a melting point of 162 to 166 °C. Besides, the IC50 at human MAO-B was 0.034 ± 0.006 µM. Moreover, the IC50 on human MAO-A was found to be 45.5 ± 2.93 µM.

On to `O=C(/C=C/c1ccc([N+](=O)[O-])cc1)c1ccc(F)cc1` [Compound 12, (E)-1–(4-fluorophenyl)-3–(4-nitrophenyl)prop-2-en-1-one], for which the melting point lay within 165 to 169 °C. In addition, on human MAO-B, the Selectivity index was 172 and the IC50 came out at 0.069 ± 0.006 µM. Also, the IC50 on human MAO-A was 11.9 ± 0.822 µM.

On to `COc1cc(Br)ccc1/C=C/C(=O)c1ccc(S(C)(=O)=O)cc1` [Compound 10, (E)-3–(4-bromo-2-methoxyphenyl)-1–(4-(methylsulfonyl)phenyl)prop-2-en-1-one], for which the melting point was in the range of 199 to 203 °C. For the same compound, on human MAO-B, the Selectivity index was determined as 150 and the IC50 stood at 0.582 ± 0.03 µM. The IC50 at human MAO-A was determined as 87.3 ± 9.34 µM.
